Reference: PubChem BioAssay AID328 (DTP/NCI, 2004)
Several values for one entry are separate records, joined by “and”; a condition that tells them apart may be missing. Equal values may be shown once. Toxic doses and inconclusive results are not listed.

Tested on: BDF1 mice, P388 leukemia ip, median survival T/C
Assay: NCI In Vivo Anticancer Drug Screen. Data for tumor model P388 Leukemia (intraperitoneal) in B6D2F1 (BDF1) mice
Conditions: endpoint: median survival time, higher = longer survival
In short: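 In tumour-bearing mice, survival after compound treatment is set against the vehicle group and given as a quotient.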

[1] = dose: 25.0 mg/kg/injection, schedule: Q01DX009 (ip), vehicle: saline with Tween-80
[2] = dose: 50.0 mg/kg/injection, schedule: Q01DX009 (ip), vehicle: saline with Tween-80
[3] = dose: 100.0 mg/kg/injection, schedule: Q01DX009 (ip), vehicle: saline with Tween-80
[4] = dose: 200.0 mg/kg/injection, schedule: Q01DX009 (ip), vehicle: saline with Tween-80
[5] = dose: 100.0 mg/kg/injection, schedule: Q01DX005 (ip), vehicle: saline
[6] = dose: 100.0 mg/kg/injection, schedule: Q04DX003 (ip), vehicle: saline with Tween-80
[7] = dose: 200.0 mg/kg/injection, schedule: Q04DX003 (ip), vehicle: saline with Tween-80
[8] = dose: 400.0 mg/kg/injection, schedule: Q04DX003 (ip), vehicle: saline with Tween-80
[9] = dose: 100.0 mg/kg/injection, schedule: Q01DX009 (ip), vehicle: Klucel (hydroxypropylcellulose) (HPC)
[10] = dose: 100.0 mg/kg/injection, schedule: Q04DX003 (ip), vehicle: Klucel (hydroxypropylcellulose) (HPC)
[11] = dose: 200.0 mg/kg/injection, schedule: Q01DX009 (ip), vehicle: Klucel (hydroxypropylcellulose) (HPC)
[12] = dose: 200.0 mg/kg/injection, schedule: Q04DX003 (ip), vehicle: Klucel (hydroxypropylcellulose) (HPC)
[13] = dose: 400.0 mg/kg/injection, schedule: Q01DX009 (ip), vehicle: Klucel (hydroxypropylcellulose) (HPC)
[14] = dose: 400.0 mg/kg/injection, schedule: Q04DX003 (ip), vehicle: Klucel (hydroxypropylcellulose) (HPC)
[15] = dose: 100.0 mg/kg/injection, schedule: Q01DX009 (ip), vehicle: saline
[16] = dose: 200.0 mg/kg/injection, schedule: Q01DX009 (ip), vehicle: saline
[17] = dose: 400.0 mg/kg/injection, schedule: Q01DX009 (ip), vehicle: saline with Tween-80

CN1CCc2cc3c4cc2C1Cc1ccc(O)c(c1)Oc1ccc(cc1)CC1c2c(cc(O)c(c2O4)O3)CCN1C (stereo not drawn)
T/C (dose: 7.5 mg/kg/injection, schedule: Q01DX009 (ip), vehicle: saline with Tween-80): 90 % of control

O=c1ccc2c([nH]1)CCC2
T/C [1]: 86 % of control
T/C (dose: 25.0 mg/kg/injection, schedule: Q04DX003 (ip), vehicle: saline): 100 % of control
T/C [2]: 90 % of control
T/C (dose: 50.0 mg/kg/injection, schedule: Q04DX003 (ip), vehicle: saline): 95 % of control
T/C [3]: 95 % of control
T/C (dose: 100.0 mg/kg/injection, schedule: Q04DX003 (ip), vehicle: saline): 100 % of control

COc1cc2cc(Oc3ccc4ccc(=O)oc4c3)c(=O)oc2cc1O
T/C (dose: 3.12 mg/kg/injection, schedule: Q01DX009 (ip), vehicle: carboxymethylcellulose (CMC)): 95 % of control
T/C (dose: 6.25 mg/kg/injection, schedule: Q01DX009 (ip), vehicle: carboxymethylcellulose (CMC)): 116 % of control
T/C (dose: 6.25 mg/kg/injection, schedule: Q01DX009 (ip), vehicle: saline + alcohol): 90 % of control
T/C (dose: 12.5 mg/kg/injection, schedule: Q01DX009 (ip), vehicle: carboxymethylcellulose (CMC)): 104 % of control
T/C (dose: 12.5 mg/kg/injection, schedule: Q01DX009 (ip), vehicle: saline + alcohol): 95 % of control
T/C (dose: 25.0 mg/kg/injection, schedule: Q01DX009 (ip), vehicle: carboxymethylcellulose (CMC)): 108 % of control
T/C (dose: 25.0 mg/kg/injection, schedule: Q01DX009 (ip), vehicle: saline + alcohol): 113 % of control

CCCCCCCCCCCCCCCCN(C)CCO
T/C (dose: 50.0 mg/kg/injection, schedule: Q01DX009 (ip), vehicle: saline + alcohol): 97 % of control

CC(Oc1ccc2ccccc2c1I)C(=O)O (stereo not drawn)
T/C (dose: 50.0 mg/kg/injection, schedule: Q01DX005 (ip), vehicle: saline with Tween-80): 91 % of control
T/C (dose: 100.0 mg/kg/injection, schedule: Q01DX005 (ip), vehicle: saline with Tween-80): 113 % of control
T/C (dose: 200.0 mg/kg/injection, schedule: Q01DX005 (ip), vehicle: saline with Tween-80): 106 % of control

COc1ccc(C(=O)CC(c2ccc3c(c2)OCO3)c2c(O)c3ccccc3oc2=O)cc1OC (stereo not drawn)
T/C [1]: 91 % of control
T/C [2]: 116 % of control
T/C (dose: 75.0 mg/kg/injection, schedule: Q01DX009 (ip), vehicle: saline with Tween-80): 88 % of control
T/C [3]: 97 % of control and 123 % of control
T/C (dose: 150.0 mg/kg/injection, schedule: Q01DX009 (ip), vehicle: saline with Tween-80): 101 % of control
T/C [4]: 87 % of control

CNCCNC
T/C (dose: 50.0 mg/kg/injection, schedule: Q01DX005 (ip), vehicle: saline): 100 % of control
T/C [5]: 98 % of control
T/C (dose: 200.0 mg/kg/injection, schedule: Q01DX005 (ip), vehicle: saline): 95 % of control

NC(=O)N/C=C1\CCCOC1=O
T/C (dose: 50.0 mg/kg/injection, schedule: Q04DX003 (ip), vehicle: saline with Tween-80): 111 % of control
T/C [6]: 101 % of control
T/C [7]: 104 % of control
T/C [8]: 109 % of control

O=C(CCCN1CCC(O)(c2cccc(C(F)(F)F)c2)CC1)c1ccc(F)cc1
T/C (dose: 12.5 mg/kg/injection, schedule: Q01DX009 (ip), vehicle: Klucel (hydroxypropylcellulose) (HPC)): 120 % of control
T/C (dose: 12.5 mg/kg/injection, schedule: Q04DX003 (ip), vehicle: Klucel (hydroxypropylcellulose) (HPC)): 112 % of control
T/C (dose: 18.75 mg/kg/injection, schedule: Q04DX003 (ip), vehicle: Klucel (hydroxypropylcellulose) (HPC)): 96 % of control
T/C (dose: 25.0 mg/kg/injection, schedule: Q01DX009 (ip), vehicle: Klucel (hydroxypropylcellulose) (HPC)): 114 % of control
T/C (dose: 25.0 mg/kg/injection, schedule: Q04DX003 (ip), vehicle: Klucel (hydroxypropylcellulose) (HPC)): 122 % of control
T/C (dose: 50.0 mg/kg/injection, schedule: Q01DX009 (ip), vehicle: Klucel (hydroxypropylcellulose) (HPC)): 117 % of control
T/C (dose: 50.0 mg/kg/injection, schedule: Q04DX003 (ip), vehicle: Klucel (hydroxypropylcellulose) (HPC)): 121 % of control
T/C (dose: 150.0 mg/kg/injection, schedule: Q04DX003 (ip), vehicle: Klucel (hydroxypropylcellulose) (HPC)): 96 % of control

CC(=O)NCCCCCC(=O)O
T/C [9]: 90 % of control
T/C [10]: 95 % of control
T/C [11]: 90 % of control
T/C [12]: 95 % of control
T/C [13]: 109 % of control
T/C [14]: 109 % of control

C[CH2][Ge]([CH2]C)[CH2]/C=C\[CH2][Ge]([CH2]C)[CH2]C
T/C (dose: 12.5 mg/kg/injection, schedule: Q01DX009 (ip), vehicle: saline with Tween-80): 100 % of control
T/C [1]: 89 % of control
T/C [2]: 100 % of control

CCOC(=O)CCC1(C(=O)OCC)Oc2ccc(Cl)cc2C1=O (stereo not drawn)
T/C [2]: 106 % of control
T/C [3]: 93 % of control
T/C [4]: 108 % of control

CCCCCCCCCCCC#N
T/C [15]: 95 % of control
T/C [16]: 95 % of control
T/C (dose: 400.0 mg/kg/injection, schedule: Q01DX009 (ip), vehicle: saline): 100 % of control

O=[N+]([O-])c1ccc(-[n+]2ccccc2)c([N+](=O)[O-])c1
T/C (dose: 37.5 mg/kg/injection, schedule: Q01DX009 (ip), vehicle: saline): 118 % of control
T/C (dose: 75.0 mg/kg/injection, schedule: Q01DX009 (ip), vehicle: saline): 122 % of control
T/C (dose: 150.0 mg/kg/injection, schedule: Q01DX009 (ip), vehicle: saline): 104 % of control

Fc1c(Cl)c(Cl)c(Cl)c(Cl)c1Cl
T/C (dose: 44.0 mg/kg/injection, schedule: Q01DX009 (ip), vehicle: other): 104 % of control
T/C (dose: 66.0 mg/kg/injection, schedule: Q01DX009 (ip), vehicle: other): 100 % of control
T/C (dose: 100.0 mg/kg/injection, schedule: Q01DX009 (ip), vehicle: other): 95 % of control
T/C [10]: 100 % of control
T/C (dose: 150.0 mg/kg/injection, schedule: Q01DX009 (ip), vehicle: other): 91 % of control
T/C [4]: 105 % of control
T/C [12]: 90 % of control
T/C [17]: 90 % of control
T/C [14]: 100 % of control

O=C(O)c1ccc(Oc2nc3ccccc3s2)cc1
T/C [1]: 95 % of control
T/C [2]: 95 % of control
T/C [3]: 104 % of control

CNCCSS(=O)(=O)CCNC
T/C [5]: 94 % of control

NN=C(NN)NN
T/C (dose: 50.0 mg/kg/injection, schedule: Q01DX009 (ip), vehicle: saline): 105 % of control
T/C [15]: 105 % of control
T/C [16]: 96 % of control

CS(=O)(=O)OCCN(CCOS(C)(=O)=O)c1ccc(/C=N/Nc2ncnc3nc[nH]c23)cc1
T/C (dose: 3.13 mg/kg/injection, schedule: Q04DX003 (ip), vehicle: saline with Tween-80): 120 % of control
T/C (dose: 66.0 mg/kg/injection, schedule: Q04DX003 (ip), vehicle: saline with Tween-80): 156 % of control
T/C [6]: 168 % of control and 182 % of control
T/C (dose: 150.0 mg/kg/injection, schedule: Q04DX003 (ip), vehicle: saline with Tween-80): 165 % of control
T/C [7]: 159 % of control

CCCCCCCCCCCCCCCCCCNC(=O)Nc1ccc(C)c(C)c1
T/C [6]: 109 % of control
T/C [7]: 109 % of control
T/C [8]: 109 % of control

CCOc1nc(OCC)nc(-c2cccn2-c2ccccc2)n1
T/C (dose: 100.0 mg/kg/injection, schedule: Q01DX001 (ip), vehicle: Klucel (hydroxypropylcellulose) (HPC)): 100 % of control
T/C [9]: 86 % of control
T/C (dose: 200.0 mg/kg/injection, schedule: Q01DX001 (ip), vehicle: Klucel (hydroxypropylcellulose) (HPC)): 104 % of control
T/C [11]: 100 % of control
T/C (dose: 400.0 mg/kg/injection, schedule: Q01DX001 (ip), vehicle: Klucel (hydroxypropylcellulose) (HPC)): 90 % of control
T/C [13]: 104 % of control

Cc1ccc(S(=O)(=O)Oc2ccc(-c3ccc(Br)cc3)cc2)cc1
T/C [2]: 96 % of control
T/C [3]: 96 % of control
T/C [4]: 101 % of control
T/C [17]: 92 % of control

CCCC(NC(=O)OCc1ccccc1)C(=O)O (stereo not drawn)
T/C [3]: 105 % of control
T/C [4]: 105 % of control
